ChEMBL document CHEMBL5042484, “Design of SARS-CoV-2 PLpro Inhibitors for COVID-19 Antiviral Therapy Leveraging Binding Cooperativity” (J Med Chem, 2022)

Tested on: SARS-CoV-2
Assay: Antiviral activity against SARS-COV-2 USA/WA1/2020 in human A549 cells overexpressing ACE2 receptor assessed as reduction in viral replication at MOI of 0.01 pretreated for 1 hr followed by viral infection and further incubated for 1 hr measured after 48 hrs by RT-qPCR analysis
Format: functional, organism-based
Conditions: Severe acute respiratory syndrome coronavirus 2, USA/WA1/2020, A549

Row | SMILES | EC50
1 | Cc1ccc(NC2CNC2)cc1C(=O)N[C@H](C)c1cccc(-c2ccc(CNC3CCCC3)s2)c1 | 1400 nM
2 | Cc1ccc(NC2CNC2)cc1C(=O)N[C@H](C)c1cccc(-c2ccc(CN3CCCC3)s2)c1 | 1200 nM
3 | Cc1ccc(N)cc1C(=O)N[C@H](C)c1cccc2ccccc12 | > 20000 nM
